Activity calls are given as the source filed them.
What was measured:
[1] = NIH3T3 cell viability loss – ATP luminescence, mouse fibroblasts, counter-screen, dose response (AID 2010); type: functional, cell-based;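 note: cells exposed to compound for about 90 hours before reading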
[2] = Trypanosoma cruzi growth suppression in host cells – NIH3T3 host cells, beta-gal luminescence, confirmation (AID 2044); type: functional, cell-based;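 note: intracellular parasites grown in NIH/3T3 mouse fibroblasts as host cells; luminescent beta-galactosidase reporter signal from transgenic T. cruzi replicating inside host cells; inhibitors lower the luminescence signal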
Cytochrome P450 2C19 = Cytochrome P450 2C19 (Homo sapiens, UniProt P33261); assay: Cytochrome panel assay with activity outcomes. Panel member name: p450-cyp2c19 Compounds with AC50 equal or less than 10 uM are considered active; type: functional
[3] = target: T1, Corticotropin-releasing factor receptor 2/Corticotropin-releasing factor-binding protein (Homo sapiens, UniProt P24387+Q13324); assay: activators of CRF receptor 2 with binding protein – uHTS hits, confirmation (AID 602473); type: functional; conditions: read-out: EC50_Mean
T1 sequence (Q13324 whole entry): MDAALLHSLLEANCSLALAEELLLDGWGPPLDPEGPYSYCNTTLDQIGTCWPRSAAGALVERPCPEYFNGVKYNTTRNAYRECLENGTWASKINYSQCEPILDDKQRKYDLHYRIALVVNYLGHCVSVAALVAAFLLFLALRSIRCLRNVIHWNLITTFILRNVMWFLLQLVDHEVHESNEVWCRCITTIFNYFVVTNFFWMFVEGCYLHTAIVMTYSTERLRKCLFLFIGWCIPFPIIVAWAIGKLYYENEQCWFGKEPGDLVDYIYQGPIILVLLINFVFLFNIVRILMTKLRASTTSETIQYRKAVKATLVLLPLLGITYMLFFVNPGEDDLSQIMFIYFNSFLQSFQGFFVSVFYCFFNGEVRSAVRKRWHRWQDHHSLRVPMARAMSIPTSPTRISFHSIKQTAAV
T1 sequence (P24387 whole entry): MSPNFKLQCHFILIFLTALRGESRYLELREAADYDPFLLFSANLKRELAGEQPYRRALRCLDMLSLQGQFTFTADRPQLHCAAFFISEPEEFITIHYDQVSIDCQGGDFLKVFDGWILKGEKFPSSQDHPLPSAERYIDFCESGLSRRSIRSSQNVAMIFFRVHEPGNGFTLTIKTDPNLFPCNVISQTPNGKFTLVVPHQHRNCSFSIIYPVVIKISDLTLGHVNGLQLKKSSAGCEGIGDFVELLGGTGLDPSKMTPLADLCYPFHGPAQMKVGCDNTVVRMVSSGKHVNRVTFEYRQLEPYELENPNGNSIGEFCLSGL

Cytochrome P450 3A4 = Cytochrome P450 3A4 (Homo sapiens, UniProt P08684);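 note: CYP3A4 tested as one member of a cytochrome P450 panel screen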
Streptokinase A = target: T2, Streptokinase A (Streptococcus pyogenes serotype M1, UniProt P10520); assay: viability-normalized secreted streptokinase activity reduction – plasminogen activation absorbance, OD405, dose response (AID 1914); type: functional, Streptococcus pyogenes M1 GAS;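 note: secreted streptokinase activity via plasminogen activation per viability signal from cell pellet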
T2 sequence (P10520 whole entry): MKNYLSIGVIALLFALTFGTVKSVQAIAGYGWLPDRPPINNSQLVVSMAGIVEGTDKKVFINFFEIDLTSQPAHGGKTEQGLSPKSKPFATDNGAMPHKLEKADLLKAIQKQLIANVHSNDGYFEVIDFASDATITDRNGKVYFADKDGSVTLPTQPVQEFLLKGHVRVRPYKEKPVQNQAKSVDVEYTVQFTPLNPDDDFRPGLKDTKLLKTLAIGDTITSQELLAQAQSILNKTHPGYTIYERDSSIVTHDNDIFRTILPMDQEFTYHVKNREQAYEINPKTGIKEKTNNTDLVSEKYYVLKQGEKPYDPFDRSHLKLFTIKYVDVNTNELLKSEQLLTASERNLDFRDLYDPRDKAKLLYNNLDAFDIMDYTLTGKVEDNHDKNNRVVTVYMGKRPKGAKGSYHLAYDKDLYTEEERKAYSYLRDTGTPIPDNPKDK

Streptococcus = assay: GAS UMAA2166 growth inhibition – luminescence, BacTiterGlo, counter-screen for streptokinase expression inhibitor project, dose response (AID 1915); type: functional, organism-based;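 note: potency for reduction of bacterial viability or growth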
[4] = test system: Streptococcus sp. 'group A'; assay: Streptococcus pyogenes SK(-)GAS viability under kanamycin – luminescence, BacTiterGlo, confirmation, counter-screen for streptokinase expression inhibitor project, dose response (AID 1900); type: functional, organism-based
Cytochrome P450 2C9 = Cytochrome P450 2C9 (Homo sapiens, UniProt P11712)
Cytochrome P450 2C9, sequence (P11712 whole entry): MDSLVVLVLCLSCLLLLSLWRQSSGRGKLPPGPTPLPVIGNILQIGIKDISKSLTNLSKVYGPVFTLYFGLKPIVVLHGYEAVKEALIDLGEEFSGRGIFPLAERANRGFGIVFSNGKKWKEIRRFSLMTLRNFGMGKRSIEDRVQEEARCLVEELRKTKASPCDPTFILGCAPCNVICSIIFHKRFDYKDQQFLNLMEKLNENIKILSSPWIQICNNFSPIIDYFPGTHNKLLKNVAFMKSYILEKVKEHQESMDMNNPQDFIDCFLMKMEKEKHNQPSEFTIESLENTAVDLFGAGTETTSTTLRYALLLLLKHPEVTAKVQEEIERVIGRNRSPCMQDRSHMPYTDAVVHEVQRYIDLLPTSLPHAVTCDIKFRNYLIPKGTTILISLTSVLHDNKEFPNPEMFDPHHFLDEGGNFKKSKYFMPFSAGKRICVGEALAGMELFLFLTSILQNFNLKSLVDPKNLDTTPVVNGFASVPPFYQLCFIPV

Cytochrome P450 2C19, sequence (P33261 whole entry): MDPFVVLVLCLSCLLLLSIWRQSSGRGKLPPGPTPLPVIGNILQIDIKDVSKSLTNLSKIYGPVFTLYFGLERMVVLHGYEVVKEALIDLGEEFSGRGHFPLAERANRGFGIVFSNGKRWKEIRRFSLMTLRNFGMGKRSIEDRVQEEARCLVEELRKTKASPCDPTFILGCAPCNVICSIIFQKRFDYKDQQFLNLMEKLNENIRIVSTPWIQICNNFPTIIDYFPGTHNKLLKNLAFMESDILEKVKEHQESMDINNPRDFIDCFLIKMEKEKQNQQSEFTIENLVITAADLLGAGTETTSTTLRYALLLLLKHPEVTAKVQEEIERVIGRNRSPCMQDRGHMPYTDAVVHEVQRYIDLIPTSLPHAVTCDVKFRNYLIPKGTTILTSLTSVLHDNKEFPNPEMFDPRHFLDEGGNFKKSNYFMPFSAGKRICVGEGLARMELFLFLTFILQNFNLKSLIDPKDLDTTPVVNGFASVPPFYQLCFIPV
Cytochrome P450 3A4, sequence (P08684 whole entry): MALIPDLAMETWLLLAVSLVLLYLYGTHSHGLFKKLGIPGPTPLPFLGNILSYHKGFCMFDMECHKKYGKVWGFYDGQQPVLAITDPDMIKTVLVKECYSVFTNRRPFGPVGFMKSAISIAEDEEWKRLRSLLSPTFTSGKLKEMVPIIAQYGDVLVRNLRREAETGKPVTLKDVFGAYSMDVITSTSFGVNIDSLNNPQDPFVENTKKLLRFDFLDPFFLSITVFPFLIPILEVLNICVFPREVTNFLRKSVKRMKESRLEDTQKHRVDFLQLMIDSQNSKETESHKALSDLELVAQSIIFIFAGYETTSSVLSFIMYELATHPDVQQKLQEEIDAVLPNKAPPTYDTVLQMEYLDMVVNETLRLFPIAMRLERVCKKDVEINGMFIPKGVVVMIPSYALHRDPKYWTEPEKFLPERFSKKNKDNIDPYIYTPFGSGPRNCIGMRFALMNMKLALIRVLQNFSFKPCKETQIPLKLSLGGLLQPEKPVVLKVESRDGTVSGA

## Cc1cc2c(NC(=O)Nc3ccc(C(F)(F)F)cc3)cccc2nn1
[1]
  EC50: > 60 µM (not active)
[2]
  EC50: 4.55 µM (active)

## Cc1nc(Nc2ccc(S(=O)(=O)N3CCCCC3C)cc2)c2nnn(Cc3ccccc3)c2n1 (centres undefined)
[1]
  EC50: > 60 µM (not active)
[2]
  EC50: 1.92 µM (active)

## O=C(CCCCCn1c(=S)[nH]c2cc3c(cc2c1=O)OCO3)N1CCN(C2CCCCC2)CC1
Cytochrome P450 2C19; read-out: AC50
  AC50: 7.08 µM (inconclusive)

## CCC1CCCCN1C(=O)COC(=O)COc1ccc(Br)cc1 (centres undefined)
[3]
  EC50: > 53 µM (inactive)

## CCS(=O)(=O)N1CCN(c2ccc(C(=O)NC3C4CC5CC(C4)CC3C5)cc2[N+](=O)[O-])CC1 (centres undefined)
[1]
  EC50: > 30 µM (not active)
[2]
  EC50: 2.32 µM (active)

## c1cncc(-c2nc(NCCCN3CCOCC3)c3c4c(sc3n2)CCC4)c1
[1]
  EC50: > 60 µM (not active)
[2]
  EC50: 2.58 µM (active)

## CCOc1ccc(Br)cc1C1C(C(=O)OC)=C(N)Oc2cc(N(C)C)ccc21 (centres undefined)
[1]
  EC50: 8.1 µM (active)
[2]
  EC50: 0.826 µM (active)

## Cc1ccc(S(=O)(=O)NC2=NC(=O)/C(=C/c3cccnc3)S2)cc1
Cytochrome P450 3A4
  AC50: 0.891 µM (inconclusive)

## CN1CCN(c2oc(COc3ccc(-c4ccccc4)cc3)nc2C#N)CC1
[1]
  EC50: > 60 µM (not active)
[2]
  EC50: 0.226 µM (active)

## COc1ccc(NC(=O)C(OC(=O)c2cnc(C)cn2)c2ccccc2)cc1Cl (centres undefined)
Streptokinase A
  EC50: > 150 µM (not active)
Streptococcus
  EC50: > 150 µM (not active)
[4]
  EC50: 4.66 µM (active)

## C=CCC[C@H](Cc1ccc(F)cc1)C(=O)OC[C@H](Cc1c[nH]c2ccccc12)NC(=O)[C@@H](CC=C)CC(=O)NCCO
[3]
  EC50: 12.8 µM (active)

## COc1cccc(-c2cc(C(=O)NCC3CCCO3)c3cc(Br)cc(C)c3n2)c1 (centres undefined)
Streptokinase A
  EC50: > 150 µM (not active)
Streptococcus
  EC50: > 150 µM (not active)
[4]
  EC50: > 150 µM (not active)

## CCOc1ccc(NC(=O)CCSc2nc3c(c(CC)c2C#N)C(=O)CC(C)(C)C3)cc1
[1]
  EC50: > 60 µM (inconclusive)
[2]
  EC50: 2.94 µM (active)

## O=C(C/C=N/OCc1ccc(F)cc1Cl)c1cnc(-c2ccccc2)s1
Cytochrome P450 3A4
  AC50: 14.1 µM (inconclusive)

## O=c1c(-c2ccc(F)cc2)nc2cnc(N3CCOCC3)nc2n1Cc1cccs1
Cytochrome P450 3A4
  AC50: 15.8 µM (inconclusive)

## CC(C)(C)[Si](C)(C)c1c2c(nc3ccc(OCc4ccccc4)cc13)-c1cccc(=O)n1C2
Cytochrome P450 2C9
  AC50: 20 µM (inconclusive)

## Fc1ccc(NC(=S)N2CCn3cccc3C2c2cccnc2)cc1 (centres undefined)
[1]
  EC50: > 60 µM (not active)
[2]
  EC50: 0.229 µM (active)

## COc1ccccc1NC(=O)N1CCCC1C(=O)NCc1ccc2c(c1)OCO2 (centres undefined)
Cytochrome P450 2C19; read-out: AC50
  AC50: 28.2 µM (inconclusive)

## CCc1ccc(S(=O)(=O)NCC2(N3CCOCC3)CCCCC2)cc1
[3]
  EC50: 6.83 µM (active)

## Cc1cc(Oc2ccc(Cl)cc2)nc(-c2ccccc2O)n1
Streptokinase A
  EC50: 14.6 µM (active)
Streptococcus
  EC50: > 150 µM (not active)
[4]
  EC50: > 150 µM (not active)

## CC(=O)N1CCC[C@@]2(CCN(c3ccncc3)C2)C1
Cytochrome P450 3A4
  AC50: 25.1 µM (inconclusive)

## N#Cc1cccc(-c2nc3cnc(N4CCNCC4)nc3n(C3CC3)c2=O)c1
Cytochrome P450 3A4
  AC50: 20 µM (inconclusive)

## COc1ccc(C(=O)Nc2scc(-c3ccc(Cl)cc3Cl)c2C(N)=O)cc1
Cytochrome P450 3A4
  AC50: 28.2 µM (inconclusive)

## COc1ccc(S(=O)(=O)N2Cc3ccccc3CC2C(=O)Nc2nccs2)cc1 (centres undefined)
Cytochrome P450 3A4
  AC50: 3.55 µM (active)

## CCCC(=O)Nc1nc(-c2ccc3c(c2)CCN3S(C)(=O)=O)cs1
Cytochrome P450 3A4
  AC50: 7.94 µM (inconclusive)

## CN=C(S)Nc1ccc2nc(C)c(C)nc2c1
Cytochrome P450 3A4
  AC50: 17.8 µM (inconclusive)
Cytochrome P450 2C19; read-out: AC50
  AC50: 39.8 µM (inconclusive)

## CCC1(CC)C(=O)N(Cc2ccccc2)C(=O)N(Cc2ccccc2)C1=O
[1]
  EC50: > 30 µM (not active)
[2]
  EC50: 1.71 µM (active)

## COc1ccc(Cc2noc(CN3CCN(Cc4cccc(Cl)c4)CC3)n2)cc1OC
[1]
  EC50: > 30 µM (not active)
[2]
  EC50: 0.788 µM (active)

## CCc1ccccc1N1CN(Cc2ccco2)CNC1=S
[3]
  EC50: > 53 µM (inactive)

## COc1ccc2c(CC#N)c[nH]c2c1
[3]
  EC50: > 53 µM (inactive)

## O=C(COc1ccccc1)N1CCN(c2nnc(-c3ccccc3)c3ccccc23)CC1
[1]
  EC50: > 60 µM (not active)
[2]
  EC50: 1.77 µM (active)

## Cc1ccc(NS(=O)(=O)c2cc([N+](=O)[O-])ccc2NN=C(S)Nc2cccc(Cl)c2)c(C)c1
Streptococcus
  EC50: 2.37 µM (active)
[4]
  EC50: 0.833 µM (active)

## Cc1cn(CC[C@H](N)C(=O)O)c(=O)[nH]c1=O
Cytochrome P450 2C19
  AC50: inconclusive

## Cc1ccc(NC(=S)/N=C(\N)Nc2nc(C)c3cc(C)c(C)cc3n2)cc1C
[2]
  EC50: 1.98 µM (active)

## O=S(=O)(NC(=NCc1ccccc1)c1ccccc1)c1ccc(Br)cc1
Streptokinase A
  EC50: 33.4 µM (active)
Streptococcus
  EC50: > 150 µM (not active)
[4]
  EC50: > 150 µM (not active)

## OCCNc1ncnc2nc[nH]c12
Cytochrome P450 3A4
  AC50: 0.251 µM (inconclusive)

## Cc1noc(C)c1C(=O)N1CCC2(CCCN(Cc3nccs3)C2)CC1
Cytochrome P450 3A4
  AC50: 12.6 µM (inconclusive)

## COC(=O)NC/C=C\c1nc(CC/C=C\C(=O)O[C@H]2C[C@H]3CC(=O)O[C@@H](/C=C\CC(C)C)C[C@@H]4CC[C@H](C)[C@H](C[C@@H](OC)C[C@H](C2)O3)O4)co1
Cytochrome P450 2C19
  AC50: inconclusive

## CN(C(=O)Cc1c(C(=O)O)n(C)c2ccccc12)c1ccc(F)cc1
Streptokinase A
  EC50: > 150 µM (not active)
Streptococcus
  EC50: > 150 µM (not active)
[4]
  EC50: > 150 µM (not active)

## Cc1noc(C)c1-c1nccc(N(C)Cc2ccco2)n1
Cytochrome P450 3A4
  AC50: 25.1 µM (inconclusive)

## Cc1ncsc1CCCl [CLOMETHIAZOLE]
Cytochrome P450 2C9
  AC50: 2.51 µM (inconclusive)

## CCOC(=O)C1=C(N)c2ccccc2CC1C1CCCC1 (centres undefined)
Streptokinase A
  EC50: 19.3 µM (active)
Streptococcus
  EC50: 11.9 µM (active)
[4]
  EC50: 7.81 µM (active)

## COc1ccc2c(c1)CCCC21NC(=O)N(CC(N)=O)C1=O (centres undefined)
Cytochrome P450 2C19; read-out: AC50
  AC50: 39.8 µM (inconclusive)

## CCOC(=O)NC1(C(F)(F)F)C(=O)N(Cc2ccccc2)C2=C1C(=O)CC(C)(C)C2 (centres undefined)
Cytochrome P450 2C9
  AC50: 28.2 µM (inconclusive)

## COc1cc(N)c(Cl)cc1C(=O)CCC1CCN(CCNS(C)(=O)=O)CC1
Cytochrome P450 3A4
  AC50: 15.8 µM (inconclusive)

## Cn1c(S)nnc1CNS(=O)(=O)c1ccc(F)cc1
Cytochrome P450 2C19; read-out: AC50
  AC50: 39.8 µM (inconclusive)

## CCCCCCC(=O)NN/C=C1/C(=O)NC(=S)N(CCCC)C1=O
Streptokinase A
  EC50: > 150 µM (not active)
Streptococcus
  EC50: 49.3 µM (active)
[4]
  EC50: 5.51 µM (active)

## CC1(C)CC2CC(C)(CN2C(=O)c2ccc([N+](=O)[O-])cc2[N+](=O)[O-])C1 (centres undefined)
[1]
  EC50: > 60 µM (not active)
[2]
  EC50: 0.955 µM (active)

## Cc1nc2cnc(N3CCOCC3)nc2n(C2CC2)c1=O
Cytochrome P450 3A4
  AC50: 15.8 µM (inconclusive)

## CCC1(C)CC(=O)NC(=O)C1 [BEMEGRIDE]
Cytochrome P450 2C19
  AC50: inconclusive

## COc1ccc(NC(=O)c2cccc(Cn3cc(Br)c([N+](=O)[O-])n3)c2)c(C)c1
[1]
  EC50: 9.14 µM (active)
[2]
  EC50: 0.32 µM (active)

## O=C(Nc1nnc(C2CC2)s1)c1ccncc1
Cytochrome P450 3A4
  AC50: 14.1 µM (inconclusive)

## Fc1ccc(COc2ccccc2CNCc2ccncc2)cc1
[2]
  EC50: 2.14 µM (active)

## CN(CCOc1ccccc1)CC(O)COCc1ccccc1F (centres undefined)
[1]
  EC50: > 60 µM (not active)
[2]
  EC50: 0.526 µM (active)

## COc1ccc(-n2c(=O)cnc3cnc(Oc4ccccc4)nc32)cc1
Cytochrome P450 2C19; read-out: AC50
  AC50: 39.8 µM (inconclusive)

## Cn1cccc1C(=O)N1CCC2(CCCN(c3ccncc3)C2)CC1
Cytochrome P450 2C9
  AC50: 25.1 µM (inconclusive)

## CCCCN=C(S)N1CCn2cccc2C1c1cccnc1 (centres undefined)
[1]
  EC50: > 60 µM (inconclusive)
[2]
  EC50: 1.77 µM (active)

## C=CCNC(=O)c1cccn1-c1ccsc1C(=O)OC
Cytochrome P450 3A4
  AC50: 14.1 µM (inconclusive)
